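Compound exposure: 48 hours, 5 concentrations, 96-well plates. GI50: concentration for 50% inhibition of growth.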 Active and inactive are the calls of the source. No stated cut-off is given here; in the data, active = GI50 up to about 1.1 µM and inactive = higher.
Legend:
Assay in all cases: NCI-60 cell line screen, 48 h
A549 = system: A549
SF-539 = system: SF-539
HCT-116 = system: HCT-116
OVCAR-3 = system: OVCAR-3
MCF7 = system: MCF7
RPMI-8226 = system: RPMI-8226
HCC 2998 = system: HCC 2998
CCRF-CEM = system: CCRF-CEM
UO-31 = system: UO-31
SNB-19 = system: SNB-19
SK-MEL-5 = system: SK-MEL-5
U-251 = system: U-251
KM12 = system: KM12
EKVX = system: EKVX
UACC-62 = system: UACC-62
OVCAR-8 = system: OVCAR-8
TK-10 = system: TK-10
PC-3 = system: PC-3
Hs-578T = system: Hs-578T
MDA-N = system: MDA-N

SMILES | GI50 (A549) | GI50 (SF-539) | GI50 (HCT-116) | GI50 (OVCAR-3) | GI50 (MCF7) | GI50 (RPMI-8226) | GI50 (HCC 2998) | GI50 (CCRF-CEM) | GI50 (UO-31) | GI50 (SNB-19) | GI50 (SK-MEL-5) | GI50 (U-251) | GI50 (KM12) | GI50 (EKVX) | GI50 (UACC-62) | GI50 (OVCAR-8) | GI50 (TK-10) | GI50 (PC-3) | GI50 (Hs-578T) | GI50 (MDA-N)
c1ccc2c(c1)SP1Sc3ccccc3P21 (stereo not drawn) | > 100 µM (inactive) | > 100 µM (inactive) | > 80 µM (inactive) | > 100 µM (inactive) | > 100 µM (inactive) | 59.6 µM (inactive) | 90.6 µM (inactive) | > 87.1 µM (inactive) | 68.1 µM (inactive) | > 28.2 µM (inactive) | > 100 µM (inactive) | > 100 µM (inactive) | > 100 µM (inactive) | > 100 µM (inactive) | > 85.1 µM (inactive) | > 89.3 µM (inactive) |  |  |  | 
COC1CCC(O)C(CO)O1 (stereo not drawn) | > 100 µM (inactive) | 41.2 µM (inactive) | > 100 µM (inactive) | 41.4 µM (inactive) |  |  | > 100 µM (inactive) | 10.9 µM (inactive) | > 100 µM (inactive) |  | > 100 µM (inactive) | > 10 µM (inactive) | > 100 µM (inactive) | > 100 µM (inactive) | > 100 µM (inactive) | > 100 µM (inactive) | > 100 µM (inactive) |  |  | 
O=C(O)C12CCCC(CCC1)C2 | > 100 µM (inactive) | > 100 µM (inactive) | > 100 µM (inactive) | > 100 µM (inactive) |  | > 100 µM (inactive) |  | > 100 µM (inactive) | > 100 µM (inactive) | > 100 µM (inactive) | > 100 µM (inactive) | > 100 µM (inactive) | > 100 µM (inactive) | > 100 µM (inactive) | > 100 µM (inactive) | > 100 µM (inactive) | > 100 µM (inactive) |  |  | 
CSc1nc(Cl)c2c(n1)Sc1ncnn1C2O (stereo not drawn) | 19.8 µM (inactive) | 0.318 µM (active) | 5.12 µM (inactive) | 7.31 µM (inactive) | 3.83 µM (inactive) |  | 13.6 µM (inactive) | 1.56 µM (inactive) | 2.55 µM (inactive) | 28 µM (inactive) |  | 14.9 µM (inactive) |  | 17.2 µM (inactive) | 12.6 µM (inactive) | 2.82 µM (inactive) | 17.2 µM (inactive) | 13.6 µM (inactive) | 5.09 µM (inactive) | 7.13 µM (inactive)
CC(C)(C)[Si](C)(C)OCC1OC(n2cnc3c(N)ncnc32)CC1O (stereo not drawn) |  |  | > 100 µM (inactive) | 51.2 µM (inactive) | > 100 µM (inactive) | 52.8 µM (inactive) |  | 22.6 µM (inactive) | 13 µM (inactive) | > 100 µM (inactive) | 35.6 µM (inactive) | > 100 µM (inactive) | 39.6 µM (inactive) |  | 36.9 µM (inactive) | 87.9 µM (inactive) | > 100 µM (inactive) | 53.1 µM (inactive) | 55.5 µM (inactive) | > 100 µM (inactive)
Cc1ccc2c(c1)C(=O)N(N(C)C)CC(=O)N2 | > 100 µM (inactive) | > 100 µM (inactive) | > 100 µM (inactive) | > 100 µM (inactive) |  | > 100 µM (inactive) | > 100 µM (inactive) | > 100 µM (inactive) | > 100 µM (inactive) | > 100 µM (inactive) | > 100 µM (inactive) | > 100 µM (inactive) | > 100 µM (inactive) | > 100 µM (inactive) | > 100 µM (inactive) | > 100 µM (inactive) | > 100 µM (inactive) |  |  | 
C[n+]1c(-c2ccc(/C=N/Nc3n[nH]c(=S)n3N/N=C/c3ccc(-c4cn5ccccc5[n+]4C)cc3)cc2)cn2ccccc21 | > 100 µM (inactive) | > 100 µM (inactive) | > 100 µM (inactive) |  | > 100 µM (inactive) | > 100 µM (inactive) | > 100 µM (inactive) | > 100 µM (inactive) | > 100 µM (inactive) | > 100 µM (inactive) | > 100 µM (inactive) | > 100 µM (inactive) | > 100 µM (inactive) | > 100 µM (inactive) |  | > 100 µM (inactive) | > 100 µM (inactive) | > 100 µM (inactive) | > 100 µM (inactive) | > 100 µM (inactive)
Cc1cccc(C(C)C)c1NC(=O)CC1Sc2ccccc2NC1=O (stereo not drawn) | 87.3 µM (inactive) | > 100 µM (inactive) | 55.6 µM (inactive) | > 100 µM (inactive) |  | 57.4 µM (inactive) | > 100 µM (inactive) | > 100 µM (inactive) | 74.5 µM (inactive) | > 100 µM (inactive) | 35.4 µM (inactive) | > 100 µM (inactive) | > 100 µM (inactive) | > 100 µM (inactive) | 44.4 µM (inactive) | > 100 µM (inactive) | > 100 µM (inactive) |  |  | 
COc1cc2c(cc1OC)CCN=C2 |  |  | > 100 µM (inactive) | > 100 µM (inactive) | > 100 µM (inactive) | > 100 µM (inactive) | > 100 µM (inactive) | > 100 µM (inactive) | > 100 µM (inactive) | > 100 µM (inactive) | > 100 µM (inactive) | > 100 µM (inactive) | > 100 µM (inactive) |  | > 100 µM (inactive) | > 100 µM (inactive) | > 100 µM (inactive) | > 100 µM (inactive) | > 100 µM (inactive) | > 100 µM (inactive)
[O-][n+]1c2c([n+]([O-])c3ccccc31)-c1cccc3cccc-2c13 | > 100 µM (inactive) |  | > 100 µM (inactive) | > 100 µM (inactive) | > 100 µM (inactive) |  | > 100 µM (inactive) | > 100 µM (inactive) | 43 µM (inactive) | > 100 µM (inactive) | > 100 µM (inactive) | 43 µM (inactive) | > 100 µM (inactive) |  |  | > 100 µM (inactive) | > 100 µM (inactive) | > 100 µM (inactive) | 32.9 µM (inactive) | > 100 µM (inactive)
CC1(C)OC2CC(=O)OCC23C1CC(=O)C1(C)C3CCC2(C)C(c3ccoc3)OC(=O)C3OC321 (stereo not drawn) | > 125 µM (inactive) | > 117 µM (inactive) | > 125 µM (inactive) | > 125 µM (inactive) | > 70.3 µM (inactive) | > 125 µM (inactive) | > 125 µM (inactive) | > 125 µM (inactive) | > 125 µM (inactive) | > 125 µM (inactive) | > 125 µM (inactive) | > 125 µM (inactive) | > 125 µM (inactive) | > 58.1 µM (inactive) | > 125 µM (inactive) | 11.7 µM (inactive) |  |  |  | 
O=C1C(=Cc2cccc(O)c2)N=C(c2ccccc2)N1n1c(-c2ccccc2)nc2ccccc2c1=O | 36.9 µM (inactive) | 17.9 µM (inactive) | 17.5 µM (inactive) | 22.4 µM (inactive) |  | 17.4 µM (inactive) |  | 24.3 µM (inactive) | 27.2 µM (inactive) | 25.9 µM (inactive) | 23.7 µM (inactive) | 35.4 µM (inactive) | 24.9 µM (inactive) | 34.9 µM (inactive) | 19.7 µM (inactive) | 31.4 µM (inactive) | 48.3 µM (inactive) | 23.8 µM (inactive) | 14.3 µM (inactive) | 
CCCCn1/c(=N/C(=S)N(C)C)ss/c1=N\C(=S)N(C)C | > 100 µM (inactive) | > 100 µM (inactive) | > 100 µM (inactive) |  |  | > 100 µM (inactive) | > 100 µM (inactive) | > 100 µM (inactive) | > 100 µM (inactive) | > 100 µM (inactive) |  | > 100 µM (inactive) | > 100 µM (inactive) | > 100 µM (inactive) | > 100 µM (inactive) | > 100 µM (inactive) | 6.19 µM (inactive) |  |  | 
Nc1nc(Cl)nc2c1ncn2C1CCC(CO)O1 (stereo not drawn) |  |  | > 100 µM (inactive) | > 100 µM (inactive) | > 100 µM (inactive) | > 100 µM (inactive) |  | 3.46 µM (inactive) | > 100 µM (inactive) | > 100 µM (inactive) | > 100 µM (inactive) | > 100 µM (inactive) | > 100 µM (inactive) |  | > 100 µM (inactive) | 41.6 µM (inactive) | > 100 µM (inactive) | > 100 µM (inactive) | > 100 µM (inactive) | > 100 µM (inactive)
CN(C)C(=O)OCOC(=O)N(C)C | > 100 µM (inactive) | > 100 µM (inactive) | > 100 µM (inactive) | > 100 µM (inactive) | > 100 µM (inactive) | > 100 µM (inactive) | > 91.8 µM (inactive) | > 100 µM (inactive) | > 100 µM (inactive) | > 100 µM (inactive) | > 100 µM (inactive) | > 100 µM (inactive) | > 100 µM (inactive) | > 100 µM (inactive) | > 100 µM (inactive) | > 100 µM (inactive) |  |  |  | 
COc1ccc(C2CC(c3c(O)ccc4ccccc34)=NN2)cc1OC (stereo not drawn) |  | 4.27 µM (inactive) |  | 4.46 µM (inactive) | 6.37 µM (inactive) | 8 µM (inactive) | 2.22 µM (inactive) | 4.85 µM (inactive) | 2.11 µM (inactive) | 2.1 µM (inactive) | 2.82 µM (inactive) | 2.7 µM (inactive) | 3.52 µM (inactive) | 6.01 µM (inactive) | 3.29 µM (inactive) | 2.98 µM (inactive) | 3.91 µM (inactive) | 3.54 µM (inactive) | 2.16 µM (inactive) | 3.95 µM (inactive)
O=C(CCC1C(=O)NC(=S)NC1=O)c1ccc2ccccc2c1 | > 100 µM (inactive) | > 100 µM (inactive) | > 100 µM (inactive) | > 100 µM (inactive) |  |  | > 100 µM (inactive) | > 100 µM (inactive) | > 100 µM (inactive) | > 100 µM (inactive) | > 100 µM (inactive) | > 100 µM (inactive) | > 100 µM (inactive) | > 100 µM (inactive) | > 100 µM (inactive) | > 100 µM (inactive) | > 100 µM (inactive) |  |  | 

Source: ChEMBL document CHEMBL1201862, “PubChem BioAssay data set” (2004)
